How the values were obtained:
Format in all cases: cell-based
ATM = target: T1, ATM (Homo sapiens, UniProt Q13315); assay: ATM pSer1981 imaging assay in irradiated HT29 cells; settings: geometric mean; Supplementary Table 1; read-out: Compound IC50 ATM
T1 construct: ATM (pATM Ser1981) in HT29; endogenous in cells; host or cells: HT-29
Experimental: Following this final incubation, the plates were washed twice using PBS, s ealed with black plate seals and then read on a CellInsight™ imaging platform (Thermo Scientific) with 10x objective. A two-laser setup was used to analyse nuclear staining with Hoechst (405 nm) and secondary antibody staining of pATM (488 nm). […]

ATR = target: T2, ATR (Homo sapiens, UniProt Q13535); assay: ATR (pCHK1 Ser345) imaging assay in 4NQO-treated HT29 cells; settings: geometric mean; Supplementary Table 1; read-out: Compound IC50 ATR
T2 construct: ATR (pCHK1 Ser345) in HT29; endogenous in cells; host or cells: HT-29
Experimental: HT-29 cells by an imaging-based assay. HT-29 cells were dispensed into 384-well Greiner plates (#781090) to give 6000 cells/well in a total volume of 40 µL cell media and incubated overnight. Test compounds and reference controls were dosed directly into the cell plates using a Labcyte Echo 555 acoustic dispenser. The cell plates were then incubated for 1 hour at 37°C before being dosed with 3 µM of 4NQO using a Labcyte Echo 555 acoustic dispenser. The cells were incubated for a further 1 h our and were then fixed by the addition of 20 µL 3.7% formaldehyde in PBS and incubated for 20 min utes at RT. The plates were subsequently washed on a Bioteck EL406 3x using PBS-T, and then permeabilized with the addition of 20 µL of 0.1% Triton X-100 in PBS for 10 minutes at RT. Following permeabilization, the plates were washed 3x with PBST and incubated with 20 µL of primary antibody (1:250 anti-Chk1 pSer345 in PBS-T) overnight at 4°C. The next day, the plates were washed 3x with PBS and incubated with 20 µL of secondary antibody (1:500 AlexaFluor 488 goat anti-rabbit IgG and 1:5000 Hoechst stock solution [10 mg/mL ] in antibody buffer) for 2 hours at RT. Following this final incubation, the plates were washed 3x with PBS, sealed with black plate seals and then read on a CellInsight imaging platform (Thermo Scientific) with 10x objective. A two -laser setup was used to analyse nuclear staining with Hoechst (405 nm) and secondary antibody staining of pChk1 (488 nm). […]

PI3Kγ = target: T3, PI3Kγ (Mus musculus, UniProt Q9JHG7); assay: PI3K isoform assay, pAKT Thr308 ELISA in RAW-264 cells; settings: geometric mean; Supplementary Table 1; read-out: Compound IC50 PI3K (third PI3K line)
T3 construct: RAW-264 (PI3Kγ); endogenous in cells; host or cells: RAW-264
T3 sequence (Q9JHG7 whole entry, canonical isoform): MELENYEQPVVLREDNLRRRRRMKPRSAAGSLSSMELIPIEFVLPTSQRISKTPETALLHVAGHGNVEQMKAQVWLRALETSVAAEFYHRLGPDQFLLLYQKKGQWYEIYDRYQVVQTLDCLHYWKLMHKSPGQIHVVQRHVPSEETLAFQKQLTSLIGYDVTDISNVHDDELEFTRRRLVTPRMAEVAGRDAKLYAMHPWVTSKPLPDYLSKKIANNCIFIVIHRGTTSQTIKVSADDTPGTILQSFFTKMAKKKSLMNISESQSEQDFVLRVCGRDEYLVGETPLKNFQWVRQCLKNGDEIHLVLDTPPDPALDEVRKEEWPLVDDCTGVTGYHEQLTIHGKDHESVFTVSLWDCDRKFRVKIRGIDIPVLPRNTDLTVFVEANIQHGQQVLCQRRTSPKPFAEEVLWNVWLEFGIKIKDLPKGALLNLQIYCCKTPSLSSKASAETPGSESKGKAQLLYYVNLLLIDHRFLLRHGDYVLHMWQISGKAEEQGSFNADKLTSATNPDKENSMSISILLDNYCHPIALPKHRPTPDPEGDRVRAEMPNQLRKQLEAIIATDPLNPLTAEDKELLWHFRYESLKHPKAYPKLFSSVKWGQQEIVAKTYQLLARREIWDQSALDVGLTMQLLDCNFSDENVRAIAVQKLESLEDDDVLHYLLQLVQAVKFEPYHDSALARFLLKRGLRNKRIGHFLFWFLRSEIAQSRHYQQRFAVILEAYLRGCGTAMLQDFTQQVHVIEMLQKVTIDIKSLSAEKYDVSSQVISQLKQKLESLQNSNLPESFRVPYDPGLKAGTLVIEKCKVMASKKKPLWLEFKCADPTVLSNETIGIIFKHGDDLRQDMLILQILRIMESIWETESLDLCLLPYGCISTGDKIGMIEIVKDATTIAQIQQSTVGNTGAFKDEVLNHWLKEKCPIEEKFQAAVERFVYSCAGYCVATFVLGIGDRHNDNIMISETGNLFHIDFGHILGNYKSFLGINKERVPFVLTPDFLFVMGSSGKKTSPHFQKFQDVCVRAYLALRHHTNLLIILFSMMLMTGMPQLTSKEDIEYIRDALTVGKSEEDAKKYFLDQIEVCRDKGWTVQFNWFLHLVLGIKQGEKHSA
Experimental: (§1) BT474 (PI3Kα), MDA-MB-468 (PI3Kβ), RAW-264 (PI3Kγ) and JEKO-1 (PI3Kδ). Levels of phospho-AKT Thr308, a downstream target for PI3K, was used as a marker of PI3K […]
RAW-264 and JEKO-1 cells were seeded directly into 384-well plates containing compounds (1 x 10^5 cells/well) and incubated for 1 hour. Compounds were added to cells/plates using an Echo 555 Liquid Handler (LabCyte). […]
(§2) X-100) for 30 minutes at RT. To stimulate AKT phosphorylation, C5a (complement 5a) anaphylatoxin trifluoroacetate salt (20 nM; Bachem) was added to RAW-264 cells for 3 minutes and anti-human IgM (120 µg/mL; Stratech) was added to JEKO-1 cells for 10 minutes prior to cell lysis. RAW-264 and JEKO-1 cells were then lysed for 30 minutes at RT. Lysates were transferred onto ELISA plates pre-coated with anti-AKT antibody (Cell Signalling #7144) that had previously been blocked with 1% BSA in PBS-T and incubated overnight at 4°C. Plates were then incubated with mouse anti-phosphoAKT Thr308 (Cell Signalling Technology #7144) for 2 hours, followed by an anti-mouse HRP-conjugated antibody (Cell Signalling Technology #7144) for 2 hours. Plates were washed between antibody incubation steps with PBS-T. QuantaBlu substrate working solution […]
(§3) (ThermoScientific #15169) was added to each well according to the manufacturer’s instructions and stop solution was added 60 minutes later. Fluorescence was measured

DNA-PKcs = target: T4, DNA-PKcs (Homo sapiens, UniProt P78527); assay: DNA-PKcs autophosphorylation (pSer2056) ELISA in IR-treated A549 cells; settings: geometric mean; Supplementary Table 1; read-out: Compound IC50 DNA-PKcs
T4 construct: evaluated in A549 cells following IR by measuring DNA-PKcs autophosphorylation on Ser2056; endogenous in cells; host or cells: A549

PI3Kα = PI3Kα (Homo sapiens, UniProt P42336); assay: PI3K isoform assay, pAKT Thr308 ELISA in BT474 cells; settings: geometric mean; Supplementary Table 1; read-out: Compound IC50 PI3K (first PI3K line)
Chain of PI3Kα (P42336 187-1068 limits assumed): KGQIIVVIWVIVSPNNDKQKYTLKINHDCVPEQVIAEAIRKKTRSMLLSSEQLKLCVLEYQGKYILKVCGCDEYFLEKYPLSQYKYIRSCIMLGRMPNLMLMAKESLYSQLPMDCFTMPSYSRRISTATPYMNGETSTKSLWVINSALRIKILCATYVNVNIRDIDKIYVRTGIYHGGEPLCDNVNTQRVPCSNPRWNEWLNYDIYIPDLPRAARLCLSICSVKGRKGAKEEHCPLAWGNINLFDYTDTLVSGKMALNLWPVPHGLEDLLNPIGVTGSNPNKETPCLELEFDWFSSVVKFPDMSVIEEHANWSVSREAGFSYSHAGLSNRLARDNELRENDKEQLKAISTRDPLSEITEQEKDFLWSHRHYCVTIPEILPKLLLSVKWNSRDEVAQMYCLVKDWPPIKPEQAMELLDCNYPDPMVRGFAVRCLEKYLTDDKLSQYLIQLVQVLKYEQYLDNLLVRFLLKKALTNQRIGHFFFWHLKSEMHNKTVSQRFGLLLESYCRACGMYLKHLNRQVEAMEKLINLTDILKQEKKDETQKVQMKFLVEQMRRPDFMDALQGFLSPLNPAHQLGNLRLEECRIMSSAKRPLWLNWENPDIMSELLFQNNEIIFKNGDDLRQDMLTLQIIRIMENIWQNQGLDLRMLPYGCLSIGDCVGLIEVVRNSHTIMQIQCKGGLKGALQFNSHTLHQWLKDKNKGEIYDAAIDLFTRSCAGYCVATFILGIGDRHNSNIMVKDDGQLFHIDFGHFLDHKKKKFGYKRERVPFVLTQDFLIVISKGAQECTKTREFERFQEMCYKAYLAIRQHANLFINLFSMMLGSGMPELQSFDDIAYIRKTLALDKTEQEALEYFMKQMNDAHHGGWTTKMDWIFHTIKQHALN
Experimental: as §1
(§4) BT474 and MDA -MB-468 cells were seeded into 384-well plates
(§5) (5600 cells/well) and incubated overnight prior to compound treatment for 2 hours. […]
(§6) Compounds were added to […]
(§7) cells/plates using an Echo 555 Liquid Handler (LabCyte). BT474 and MDA -MB-468 cells were lysed in 25 µL lysis buffer (25 mM Tris-HCl, 3 mM EDTA, 3 mM EGTA, 50 mM NaF, 2 mM Na3VO4, 0.27 M sucrose, 10 mM β-glycerophosphate, 5 mM Na2P2O7, 0.5% Triton […]
(§8) X-100) for 30 minutes at RT. […]
(§9) Lysates were transferred onto ELISA plates pre-coated with anti-AKT antibody (Cell Signalling #7144) that had previously been blocked with 1% BSA in PBS-T and incubated overnight at 4°C. Plates were then incubated with mouse anti-phosphoAKT Thr308 (Cell Signalling Technology #7144) for 2 hours, followed by an anti-mouse HRP-conjugated antibody (Cell Signalling Technology #7144) for 2 hours. Plates were washed between antibody incubation steps with PBS-T. QuantaBlu substrate working solution […]
as §3

PI3Kβ = target: T5, PI3Kβ (Homo sapiens, UniProt P42338); assay: PI3K isoform assay, pAKT Thr308 ELISA in MDA-MB-468 cells; settings: geometric mean; Supplementary Table 1; read-out: Compound IC50 PI3K (second PI3K line)
T5 construct: MDA-MB-468 (PI3Kβ); endogenous in cells; host or cells: MDA-MB-468
Experimental: as §1, §4, §5, §6, §7, §8, §9, §3

PI3Kδ = target: T6, PI3Kδ (Homo sapiens, UniProt O00329); assay: PI3K isoform assay, pAKT Thr308 ELISA in JEKO-1 cells; settings: geometric mean; Supplementary Table 1; read-out: Compound IC50 PI3K (fourth PI3K line)
T6 construct: JEKO-1 (PI3Kδ) cells; endogenous in cells; host or cells: JEKO-1
Experimental: as §1
as §7, with “RAW-264 and JEKO-1 cells were seeded directly into 384-well plates containing compounds (1 x 10^5 cells/well) and incubated for 1 hour. Compounds were added to cells/plates” for “cells/plates”
as §8
as §2, with “3” for “X-100) for 30 minutes at RT. To stimulate AKT phosphorylation, C5a (complement 5a) anaphylatoxin trifluoroacetate salt (20 nM; Bachem) was added to RAW-264 cells for 3”, “hours.” for “hours. Plates were washed between antibody incubation steps with PBS-T. QuantaBlu substrate working solution”
as §3

mTOR = target: T7, mTOR (Homo sapiens, UniProt P42345); assay: mTOR (pAKT Ser473) imaging assay in MDA-MB-468 cells; settings: geometric mean; Supplementary Table 1; read-out: Compound IC50 mTOR
T7 construct: mTOR (pAKT Ser473) in MDA-MB-468; endogenous in cells; host or cells: MDA-MB-468

[1] = tested on: secondary pharmacology target; assay: Cellular selectivity across secondary pharmacology targets; settings: versus cellular DNA-PKcs

T1 sequence (Q13315 whole entry): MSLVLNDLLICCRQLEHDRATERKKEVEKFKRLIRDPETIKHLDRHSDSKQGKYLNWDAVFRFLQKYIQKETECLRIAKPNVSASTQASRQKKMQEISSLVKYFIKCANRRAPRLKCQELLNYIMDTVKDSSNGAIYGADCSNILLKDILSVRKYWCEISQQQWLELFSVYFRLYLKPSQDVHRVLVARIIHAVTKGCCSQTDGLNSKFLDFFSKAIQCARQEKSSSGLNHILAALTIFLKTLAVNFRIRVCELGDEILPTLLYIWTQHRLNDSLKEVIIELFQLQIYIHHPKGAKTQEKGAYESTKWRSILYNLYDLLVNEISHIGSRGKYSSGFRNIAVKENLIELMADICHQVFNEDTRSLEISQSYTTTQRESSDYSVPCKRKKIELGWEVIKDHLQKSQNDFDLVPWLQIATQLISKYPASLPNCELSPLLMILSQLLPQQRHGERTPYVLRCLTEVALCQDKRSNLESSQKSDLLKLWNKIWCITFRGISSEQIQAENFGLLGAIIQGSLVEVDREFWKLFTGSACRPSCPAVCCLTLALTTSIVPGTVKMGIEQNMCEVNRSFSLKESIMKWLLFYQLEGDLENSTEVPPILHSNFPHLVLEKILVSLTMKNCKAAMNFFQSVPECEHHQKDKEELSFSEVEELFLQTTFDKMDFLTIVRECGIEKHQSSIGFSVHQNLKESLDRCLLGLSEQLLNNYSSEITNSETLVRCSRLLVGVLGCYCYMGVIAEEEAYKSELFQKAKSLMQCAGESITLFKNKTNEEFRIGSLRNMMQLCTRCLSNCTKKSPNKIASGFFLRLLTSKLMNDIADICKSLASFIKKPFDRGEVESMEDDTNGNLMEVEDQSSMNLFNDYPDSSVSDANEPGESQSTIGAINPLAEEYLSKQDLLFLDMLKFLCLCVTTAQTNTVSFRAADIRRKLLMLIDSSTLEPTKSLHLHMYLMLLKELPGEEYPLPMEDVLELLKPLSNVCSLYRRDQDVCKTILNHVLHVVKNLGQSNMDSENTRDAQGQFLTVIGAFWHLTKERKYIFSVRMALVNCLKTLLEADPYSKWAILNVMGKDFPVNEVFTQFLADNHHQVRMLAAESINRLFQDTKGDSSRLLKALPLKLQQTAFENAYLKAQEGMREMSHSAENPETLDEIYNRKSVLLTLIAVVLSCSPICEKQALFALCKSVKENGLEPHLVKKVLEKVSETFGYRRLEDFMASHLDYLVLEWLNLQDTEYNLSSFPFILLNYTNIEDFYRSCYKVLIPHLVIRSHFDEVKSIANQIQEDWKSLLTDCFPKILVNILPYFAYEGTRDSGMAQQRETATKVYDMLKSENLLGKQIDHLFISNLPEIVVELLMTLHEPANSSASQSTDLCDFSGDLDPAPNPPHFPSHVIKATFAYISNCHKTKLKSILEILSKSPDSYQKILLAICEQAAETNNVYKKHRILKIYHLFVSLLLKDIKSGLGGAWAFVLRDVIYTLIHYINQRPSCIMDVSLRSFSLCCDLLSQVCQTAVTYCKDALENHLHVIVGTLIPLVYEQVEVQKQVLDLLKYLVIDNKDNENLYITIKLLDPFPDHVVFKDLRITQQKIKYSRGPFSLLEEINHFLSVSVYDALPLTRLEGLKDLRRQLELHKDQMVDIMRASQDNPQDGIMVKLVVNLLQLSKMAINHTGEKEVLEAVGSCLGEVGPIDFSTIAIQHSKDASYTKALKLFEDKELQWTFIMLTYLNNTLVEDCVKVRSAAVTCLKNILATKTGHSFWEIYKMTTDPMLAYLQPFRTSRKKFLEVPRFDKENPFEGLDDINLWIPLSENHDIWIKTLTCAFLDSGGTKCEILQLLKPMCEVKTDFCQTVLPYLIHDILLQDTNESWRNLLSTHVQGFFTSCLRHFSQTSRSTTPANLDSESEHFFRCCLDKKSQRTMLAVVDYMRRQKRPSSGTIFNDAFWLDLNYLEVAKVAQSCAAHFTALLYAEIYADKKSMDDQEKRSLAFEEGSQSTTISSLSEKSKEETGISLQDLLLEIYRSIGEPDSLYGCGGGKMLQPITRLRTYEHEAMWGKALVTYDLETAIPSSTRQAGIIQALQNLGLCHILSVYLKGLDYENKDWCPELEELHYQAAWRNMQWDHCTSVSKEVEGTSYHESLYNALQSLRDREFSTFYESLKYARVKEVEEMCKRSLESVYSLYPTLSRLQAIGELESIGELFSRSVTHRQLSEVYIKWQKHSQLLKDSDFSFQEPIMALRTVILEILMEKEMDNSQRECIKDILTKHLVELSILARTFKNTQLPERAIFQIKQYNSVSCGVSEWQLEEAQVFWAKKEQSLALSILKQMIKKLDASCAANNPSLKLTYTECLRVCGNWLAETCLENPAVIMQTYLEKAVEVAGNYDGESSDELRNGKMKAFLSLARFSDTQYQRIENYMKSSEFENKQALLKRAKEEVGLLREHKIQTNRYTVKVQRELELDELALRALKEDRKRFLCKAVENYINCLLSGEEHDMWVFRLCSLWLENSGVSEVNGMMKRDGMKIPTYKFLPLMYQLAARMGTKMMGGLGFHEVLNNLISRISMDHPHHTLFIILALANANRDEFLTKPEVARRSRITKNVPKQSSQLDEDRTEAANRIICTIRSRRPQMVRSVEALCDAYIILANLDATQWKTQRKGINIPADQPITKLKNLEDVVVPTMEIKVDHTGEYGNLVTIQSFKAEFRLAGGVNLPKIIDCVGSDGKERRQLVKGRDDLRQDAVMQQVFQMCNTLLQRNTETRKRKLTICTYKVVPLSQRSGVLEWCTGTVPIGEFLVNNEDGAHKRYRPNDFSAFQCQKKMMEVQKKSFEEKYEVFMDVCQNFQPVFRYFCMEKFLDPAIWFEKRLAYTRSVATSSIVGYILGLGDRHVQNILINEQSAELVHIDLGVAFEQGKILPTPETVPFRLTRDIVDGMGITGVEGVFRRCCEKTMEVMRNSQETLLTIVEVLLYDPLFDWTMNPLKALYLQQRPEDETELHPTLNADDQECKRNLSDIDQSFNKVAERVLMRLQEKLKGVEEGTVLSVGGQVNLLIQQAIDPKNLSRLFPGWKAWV

SMILES	IC50 (ATM) [µM]	IC50 (ATR) [µM]	IC50 (PI3Kγ) [µM]	IC50 (DNA-PKcs) [µM]	IC50 (PI3Kα) [µM]	IC50 (PI3Kβ) [µM]	IC50 (PI3Kδ) [µM]	IC50 (mTOR) [µM]	selectivity in at least one secondary pharmacology target [1] [fold]
COc1ccc([C@@H](O)c2cc(-c3ncnc4cc(N5CCOCC5)ccc34)c(F)cc2Cl)nn1 [M3814]	> 30	> 30	1.59	–	–	–	–	–	–
CNC(=O)c1ccnc2c([C@H](C)CNc3cc(-c4cnc(C)nc4)ncn3)cccc12 [M9831/VX-984]	> 30	> 30	7.1	0.115	> 20	> 30	> 30	> 30	–
CCN1CCN(CC(=O)Nc2ccc(-c3cccc4c(=O)cc(N5CCOCC5)oc34)c3sc4ccccc4c23)CC1 [KU-0060648]	> 30	> 30	–	0.055	0.2	–	–	0.15	< 10
O=c1cc(N2CCOCC2)oc2c(-c3cccc4c3sc3ccccc34)cccc12 [NU7441]	> 3.1	> 30	–	0.185	7.8	–	–	1.8	< 10
